According to publication PMC5118987 (Antimicrobial Agents and Chemotherapy, 2016):

Experiments:
[1] = in vitro; conditions: human, CC50 in Primary Human Hepatocytes
[2] = via inhibition of OCT2 in proximal tubule; cited from earlier work
[3] = tested on: HIV-2 CDC 310319; experiment: Antiviral assay against HIV-2 isolate in fresh human PBMCs (RT endpoint); conditions: Human immunodeficiency virus 2, PBMC
[4] = tested on: HIV-1 IIIb; experiment: microbe, parasite or virus in culture; conditions: Human immunodeficiency virus 1, IIIB, MT4
Experimental: (§2) Each compound series was prepared several times independently in quadruplicate to capture the variations in Hill slope associated with preparation of compound serial dilutions. The assay was performed in a 384-well format. MT-4 cells were infected in bulk at the same MOI as that described above, and the plates were developed with CellTiter-Glo reagent 5 days postinfection.

[5] = tested on: HIV-1 IIIb; experiment: Antiviral assay in MT-2 cells; assay type: cell-based
Experimental: (§1) For the antiviral assay utilizing MT-2 and MT-4 cells, 50 μl of a 2× test concentration of 5-fold serially diluted compound in culture medium with 10% FBS was added to each well of a 96-well plate (9 concentrations) in triplicate. MT-2 and MT-4 cells were infected with HIV-1 IIIb at a multiplicity of infection (MOI) of 0.01 for 3 h. Fifty microliters of infected cell suspension in culture medium with 10% FBS (∼1.5 × 10^4 cells) then was added to each well containing 50 μl of diluted compound. The plates were then incubated at 37°C for 5 days. After 5 days of incubation, 100 μl of CellTiter-Glo reagent (Promega Biosciences, Inc., Madison, WI) was added to each well containing MT-2 or MT-4 cells. Cell lysis was carried out by incubation at room temperature for 10 min and chemiluminescence was read. For compound cytotoxicity assessment, the protocol was identical except that uninfected cells were used and compounds were serially diluted 3-fold.

[6] = Cytotoxicity assay in MT-2 cells; assay type: cell-based; conditions: human, uninfected MT-2 cells
Experimental: as §1

[7] = tested on: Influenza A/PC/1/73; experiment: microbe, parasite or virus in culture; assay type: cell-based; conditions: NHBE
[8] = Cytotoxicity assay in MT-4 cells; assay type: cell-based; conditions: human, uninfected MT-4 cells
Experimental: as §1

[9] = tested on: HIV-1 IIIb
Experimental: as §2

C[C@@H]1CCO[C@H]2Cn3cc(C(=O)NCc4ccc(F)cc4F)c(=O)c(O)c3C(=O)N12 [DTG, Dolutegravir]
CC50 ([1]; Donor 1): > 100000 nM
CC50 ([1]; Donor 2): > 100000 nM
increase of human serum creatinine levels [2]: about 10%
EC50 [3]: 2.5 ± 0.5 nM
EC50 [4]: 1.7 ± 0.2 nM
EC50 ([5]; Human immunodeficiency virus 1, IIIB, MT2, Table S9 footnote b, read-out: EC50 previously determined (start of resistance selection at twice the EC50)): 1.6 nM
EC50 ([5]; Human immunodeficiency virus 1, MT2, 120 h, MT-2 cells, HIV-1 IIIb, 5 days, read-out: EC50): 1.5 ± 0.2 nM
CC50 at 5 days [6]: 5350 nM
EC50 [7]: 12800 nM
CC50 at 5 days [8]: 14700 nM
PAEC95 (protein binding-adjusted EC95) ([9]; EC95 in MT-4 with human serum shift): 204 nM
EC95 ([9]; MT-4 cells, calculated using Hill slope): 7.4 nM
